Results reported in US20160120863A1, “SLC2A TRANSPORTER INHIBITORS” (IOMET PHARMA LTD., priority 2013, published 2016).

Tests used:
[1] = biological target: T1, human GLUT1 (Homo sapiens, UniProt P11166); test: [3H]-deoxy-D-glucose uptake assay, GLUT1; format: cell-based; details: [3H]-deoxy-D-glucose uptake in HEK293 cells stably expressing human GLUT1
T1 construct: expressed in transfected cells
T1 sequence (P11166 1-492): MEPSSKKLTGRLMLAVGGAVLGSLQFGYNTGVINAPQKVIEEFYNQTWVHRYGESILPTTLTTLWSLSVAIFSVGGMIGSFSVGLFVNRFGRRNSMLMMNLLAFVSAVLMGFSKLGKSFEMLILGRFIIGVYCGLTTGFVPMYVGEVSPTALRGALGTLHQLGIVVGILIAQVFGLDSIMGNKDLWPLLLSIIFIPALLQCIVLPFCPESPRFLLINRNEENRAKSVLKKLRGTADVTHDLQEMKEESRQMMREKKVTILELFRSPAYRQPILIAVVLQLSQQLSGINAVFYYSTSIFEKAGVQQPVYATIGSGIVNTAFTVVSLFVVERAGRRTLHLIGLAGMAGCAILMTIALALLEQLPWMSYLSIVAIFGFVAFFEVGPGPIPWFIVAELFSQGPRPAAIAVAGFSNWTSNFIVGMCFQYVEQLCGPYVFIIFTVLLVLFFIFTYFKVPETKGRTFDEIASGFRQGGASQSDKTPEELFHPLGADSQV
Outline: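 HEK293 cells stably overexpressing human GLUT1 or GLUT2, seeded at 60,000 per well, treated with compounds in glucose-free uptake buffer for 30 min at 37 °C. [3H]-deoxy-D-glucose uptake quantified by scintillation counting after ice-cold PBS washes; IC50 determined.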

[2] = biological target: T2, human GLUT2 (Homo sapiens, UniProt P11168); test: [3H]-deoxy-D-glucose uptake assay, GLUT2; format: cell-based; details: [3H]-deoxy-D-glucose uptake in HEK293 cells stably expressing human GLUT2
T2 construct: expressed in transfected cells
T2 sequence (P11168 1-524): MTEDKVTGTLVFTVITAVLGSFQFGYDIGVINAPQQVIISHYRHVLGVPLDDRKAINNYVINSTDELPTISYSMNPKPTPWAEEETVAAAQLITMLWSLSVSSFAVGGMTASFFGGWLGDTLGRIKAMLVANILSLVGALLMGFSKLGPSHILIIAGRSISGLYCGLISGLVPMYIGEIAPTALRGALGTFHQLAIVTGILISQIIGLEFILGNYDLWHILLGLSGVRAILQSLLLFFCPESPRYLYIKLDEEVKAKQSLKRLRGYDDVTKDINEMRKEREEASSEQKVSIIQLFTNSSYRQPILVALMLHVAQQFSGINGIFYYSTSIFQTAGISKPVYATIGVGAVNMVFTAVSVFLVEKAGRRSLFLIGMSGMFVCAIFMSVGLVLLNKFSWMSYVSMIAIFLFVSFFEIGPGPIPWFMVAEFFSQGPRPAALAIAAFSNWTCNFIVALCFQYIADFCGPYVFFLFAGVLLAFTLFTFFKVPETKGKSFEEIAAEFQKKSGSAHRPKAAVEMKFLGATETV
Description: HEK293 cells were engineered to stably express either human GLUT1, GLUT2, GLUt3 or GLUT4 by transfection with the pReceiver-Lv105 plasmid, containing either hGLUT1, hGLUT2, hGLUT3, or hGLUT4 gene constructs with lipofectamine 2000, hGLUT1- hGLUT2- hGLUT3- or hGLUT4-overexpressing polyclonal populations were isolated under purinomycin selective pressure (1 μg/ml) and maintained in Dulbecco's modified Eagle's medium supplemented with 1 μg/ml purinomycin+10% foetal bovine serum (FBS).
60,000 cells per well were seeded overnight into poly-D-lysine coasted 96-well plates. […] 90 μl of test compounds were added in glucose-free uptake buffer and cells were incubated at 37° C. for 30 min.
Cells were then washed twice with ice-cold PBS and 100 μl of Microscint-20 was added per well. Glucose uptake was quantified with a scintillation counter. The half maximal inhibitory concentration (IC50) (a measure of the effectiveness of the test compound in inhibiting glucose uptake) was determined.

Row | Structure (SMILES) | GLUT1 pIC50 [1] | GLUT2 pIC50 [2]
1 | O=C(Nc1cccc(F)c1)N1CCN(Cc2c(-c3ccc(Cl)cc3)nc3ccc(-c4ccccc4)cn23)CC1 [Compound 127] | +− (pIC50 < 4.00) | +− (pIC50 < 4.00)
2 | CC(=O)N1CCN(Cc2c(-c3ccc(Cl)cc3)nc3ccc(N4CCCS4(=O)=O)cn23)CC1 [Compound 320] | +++ (pIC50 ≧ 6.00) | +++ (pIC50 ≧ 6.00)
3 | CN(c1ccc2nc(-c3ccc(Cl)cc3)c(CN3CCNCC3)n2c1)S(C)(=O)=O [Compound 304] | ++ (pIC50 5.00-5.99) | +− (pIC50 < 4.00)
4 | Clc1ccc(-c2nc3cnc(C4CC4)cn3c2CN2CCn3ncnc3C2)c(Cl)c1 [Compound 323] | +++ (pIC50 ≧ 6.00) | +++ (pIC50 ≧ 6.00)
5 | N#Cc1ccccc1-c1ccc2nc(-c3ccc(Cl)cc3)c(CN3CCOCC3)n2c1 [Compound 91] | +++ (pIC50 ≧ 6.00) | +++ (pIC50 ≧ 6.00)
6 | CC(=O)N1CCN(Cc2c(-c3ccc(Cl)cc3)nc3ccc(N(C)S(C)(=O)=O)cn23)CC1 [Compound 292] | +++ (pIC50 ≧ 6.00) | ++ (pIC50 5.00-5.99)
7 | O=S1(=O)CCN(Cc2c(-c3ccc(Cl)cc3)nc3ccc(-c4ccccc4)cn23)CC1 [Compound 364] | ++ (pIC50 5.00-5.99) | +− (pIC50 < 4.00)
8 | CN(c1ccc2nc(-c3ccc(Cl)cc3)c(CN3CCn4ncnc4C3)n2c1)S(C)(=O)=O [Compound 324] | +++ (pIC50 ≧ 6.00) | ++ (pIC50 5.00-5.99)
9 | N#Cc1ccccc1-c1cn2c(CN3CCOCC3)c(-c3ccc(Cl)cc3)nc2cn1 [Compound 269] | +++ (pIC50 ≧ 6.00) | ++ (pIC50 5.00-5.99)
10 | CC(=O)N1CCN(Cc2c(-c3ccc(Cl)cc3Cl)nc3cnc(N(C)S(C)(=O)=O)cn23)CC1 [Compound 347] | +++ (pIC50 ≧ 6.00) | ++ (pIC50 5.00-5.99)
11 | CCOC(=O)Cc1c(-c2ccc(Cl)cc2)nc2ccc(-c3ccccc3)cn12 [Compound 302] | +− (pIC50 < 4.00) | ++ (pIC50 5.00-5.99)
12 | O=C(C1COC1)N1CCN(Cc2c(-c3ccc(Cl)cc3Cl)nc3ccc(-c4ncon4)cn23)CC1 [Compound 338] | +++ (pIC50 ≧ 6.00) | +++ (pIC50 ≧ 6.00)
13 | Clc1ccc(-c2nc3ccc(-c4ccccn4)cn3c2CN2CCn3ncnc3C2)c(Cl)c1 [Compound 299] | +++ (pIC50 ≧ 6.00) | +++ (pIC50 ≧ 6.00)
14 | CC(=O)N1CCN(Cc2c(-c3ccc(Cl)cc3)nc3ccc(NS(=O)(=O)C4CC4)cn23)CC1 [Compound 318] | +++ (pIC50 ≧ 6.00) | ++ (pIC50 5.00-5.99)
15 | CS(=O)(=O)Nc1ccc2nc(-c3ccc(Cl)cc3Cl)c(CN3CCn4ncnc4C3)n2c1 [Compound 345] | +++ (pIC50 ≧ 6.00) | ++ (pIC50 5.00-5.99)
16 | CC(=O)N1CCN(Cc2c(-c3ccc(Cl)cc3Cl)nc3cnc(C(C)C)cn23)CC1 [Compound 358] | +++ (pIC50 ≧ 6.00) | +++ (pIC50 ≧ 6.00)
17 | CN1CCN(Cc2c(-c3ccc(Cl)cc3)nc3ccc(-c4ccccc4)cn23)CCC1=O [Compound 232] | +++ (pIC50 ≧ 6.00) | +++ (pIC50 ≧ 6.00)
18 | Fc1cncc(F)c1-c1ccc2nc(-c3ccc(Cl)cc3)c(CN3CCOCC3)n2c1 [Compound 328] | ++ (pIC50 5.00-5.99) | ++ (pIC50 5.00-5.99)
19 | CC(=O)N1CCN(Cc2c(-c3ccc(Cl)cc3Cl)nc3ccc(-c4ncon4)cn23)CC1 [Compound 312] | +++ (pIC50 ≧ 6.00) | +++ (pIC50 ≧ 6.00)
20 | CS(=O)(=O)Nc1ccc2nc(-c3ccc(Cl)cc3Cl)c(CN3CCOCC3)n2c1 [Compound 357] | +++ (pIC50 ≧ 6.00) | ++ (pIC50 5.00-5.99)
21 | CCNS(=O)(=O)c1ccc2nc(-c3ccc(Cl)cc3)c(CN3CCN(C(C)=O)CC3)n2c1 [Compound 384] | +++ (pIC50 ≧ 6.00) | ++ (pIC50 5.00-5.99)
